Reference: article PMC4919066 (PLoS Pathogens, 2016)
Structures can show the parent of a compound that is named as a salt.

Columns and labels:
[1] = test system: HCMV; assay: Anti-HCMV activity in RPS14 knockdown cells (sh-RPS14); type: cell-based, Human Cytomegalovirus; conditions: emetine 75 nM, luciferase, plaque reduction, viral proteins at 72 hpi
Procedure: Human Foreskin Fibroblasts (HFFs) passage 12–16 (ATCC, CRL-2088) and mouse embryonic fibroblasts (MEFs) passage 9–14 (ATCC, CRL-1658) were grown in Dulbecco's Modified Eagle Medium (DMEM) containing 10% fetal bovine serum (FBS) (Gibco, Carlsbad, CA) in a 5% CO2 incubator at 37°C. Infection with HCMV or HSV was performed in HFFs, and infection with mouse CMV was performed in MEFs. For HCMV, cells were seeded in either a 96-well plate or 100 mm culture plates (Corning Costar, Sigma Aldrich) at 0.5 or 2 million cells /plate. Following 90 minute adsorption, media was removed and cells were washed with PBS. Media containing 4% FBS and compounds were added to each well. Infected treated HFFs were collected at 72 hpi and lysates were assayed for luciferase activity using a luciferase assay kit (Promega, Madison, WI) on GloMax-Multi+ Detection System (Promega). […] Luciferase activity was measured 72 h following second cycle infection. […] After incubation at 37°C for 10 days (for HCMV), 3 days for MCMV or 2 days (for HSV), the overlay was removed and plaques were counted after crystal violet staining.
Human TRC lentiviral shRNA constructs (Sigma-Aldrich) were used for RPS14 knockdown (KD) in HFFs. […] Control HFFs and RPS14 KD HFFs were counted and equal number of cells was plated prior to infection or treatment.

[2] = test system: MDM2-p53; assay: Co-immunoprecipitation MDM2-p53; type: cell-based, human; conditions: emetine 75 nM, infected high-density cells, 24 hpi, MG132
Procedure: Non-infected, infected or emetine-treated HFFs were treated with MG132 (10 μM) for 12h. Cells were harvested after 24 hpi and lysed with IP buffer containing 150 mM NaCl, 50mM Tris pH 7.5, 2 mM EDTA, 0.5% TritonX-100 and 0.5% NP-40-40. 1 mg of lysate was precleared with bead slurry for 30 min. The precleared lysates were incubated with anti-MDM2 (2 μg) antibody overnight. The antibody complexes were isolated using protein A/G beads (Santa Cruz), washed three times with 50% IP buffer. The immunoprecipitate-protein A/G beads were boiled in SDS sample buffer, and the supernatant was analyzed on SDS-PAGE gels after immunoblotting as described previously. 1% of the cell lysate used for IP was loaded on gels as ‘Input’. Confirmatory reverse IPs were performed as described in each experiment. Isotype control antibodies included: rabbit IgG polyclonal, mouse IgG2a kappa and mouse IgG2b kappa monoclonal (Abcam). Mouse monoclonal RPS19 antibody (Abcam) served as an additional negative control for the IPs. Densitometry analysis was performed to determine relative ratio of immunoprecipitated protein to its input level.

[3] = test system: GCV-resistant pp28-luciferase Towne; assay: GCV-resistant pp28-luciferase HCMV luciferase assay; type: cell-based, Human Cytomegalovirus; conditions: Human betaherpesvirus 5, read-out: Mean EC50 ± SD
Procedure: (§1) The pp28-luciferase HCMV Towne and a GCV-resistant pp28-luciferase were used. The recombinant viruses express luciferase under the control of the late CMV gene promoter, pp28. Luciferase expression is activated 48–72 hours post infection (hpi). The recombinant viruses provide a highly-sensitive reporter system which correlates with plaque reduction assay. The Towne HCMV strain (ATCC VR-977) was used for plaque reduction, quantitative reverse transcriptase PCR (qRT-PCR), and immunoprecipitation assays. Human herpes virus strains were: luciferase HSV1- KOS/Dlux/oriS [52] and clinical isolates of HSV2. The clinical isolates were provided by the clinical microbiology laboratory with no identifiers that can link to a specific subject. Murid Herpesvirus (MCMV: ATCC VR-1399) was used for infection of mouse embryonic fibroblasts (MEFs) and mice.
(§2) Human Foreskin Fibroblasts (HFFs) passage 12–16 (ATCC, CRL-2088) and mouse embryonic fibroblasts (MEFs) passage 9–14 (ATCC, CRL-1658) were grown in Dulbecco's Modified Eagle Medium (DMEM) containing 10% fetal bovine serum (FBS) (Gibco, Carlsbad, CA) in a 5% CO2 incubator at 37°C. […] Luciferase activity was measured 72 h following second cycle infection. […] After incubation at 37°C for 10 days (for HCMV), 3 days for MCMV or 2 days (for HSV), the overlay was removed and plaques were counted after crystal violet staining.

[4] = test system: clinical isolates of HSV2; assay: HSV-2 plaque assay in HFFs; type: cell-based; conditions: Human alphaherpesvirus 2, read-out: Mean EC50 ± SD
Procedure: as §1, §2

[5] = test system: HCMV proteins IE1/2, UL44 and pp65; assay: Western blot of viral proteins; type: cell-based, Human Cytomegalovirus; conditions: emetine 75 nM, 72 hpi
From the text: Cell lysates were quantified for protein content using bicinchoninic acid (BCA) protein assay kit (Pierce Chemical, Rockford, IL). Equivalent amount of proteins were used for Western blot analysis as described previously (11). Protein bands were visualized by chemiluminescence using Western Blotting Luminol Reagent (Santa Cruz Biotechnology, Santa Cruz, CA). The following antibodies were used for detection of HCMV proteins: mouse anti-IE1 and IE2, (MAb810); mouse anti-UL44 (Santa Cruz biotechnology); mouse monoclonal anti-pp65 (Vector laboratories, Burlingame, CA); mouse monoclonal anti-β-actin antibody (Millipore, Billerica, MA); rabbit polyclonal anti-RPS14 and mouse monoclonal anti-MDM2 (AbCam, Cambridge, UK), mouse monoclonal anti-p53 (Santa Cruz); horseradish peroxidase (HRP)-conjugated goat anti-rabbit IgG (Cell Signaling); and HRP-conjugated sheep anti-mouse IgG, (GE Healthcare, Waukesha, WI). For detection of co-immunoprecipitated proteins, protein A-HRP conjugate (Cell Signaling Technologies, Beverly, MA) was used as secondary antibody to eliminate the interfering IgG bands.

[6] = test system: pp28-luciferase HCMV Towne; assay: Second cycle infection luciferase assay; type: cell-based, Human Cytomegalovirus; conditions: emetine 75 nM
Procedure: Human Foreskin Fibroblasts (HFFs) passage 12–16 (ATCC, CRL-2088) and mouse embryonic fibroblasts (MEFs) passage 9–14 (ATCC, CRL-1658) were grown in Dulbecco's Modified Eagle Medium (DMEM) containing 10% fetal bovine serum (FBS) (Gibco, Carlsbad, CA) in a 5% CO2 incubator at 37°C. Infection with HCMV or HSV was performed in HFFs, and infection with mouse CMV was performed in MEFs. For HCMV, cells were seeded in either a 96-well plate or 100 mm culture plates (Corning Costar, Sigma Aldrich) at 0.5 or 2 million cells /plate. Following 90 minute adsorption, media was removed and cells were washed with PBS. Media containing 4% FBS and compounds were added to each well. Infected treated HFFs were collected at 72 hpi and lysates were assayed for luciferase activity using a luciferase assay kit (Promega, Madison, WI) on GloMax-Multi+ Detection System (Promega). In second cycle assays, supernatants were collected from all conditions of the first cycle at 96 hpi and used for infection of fresh HFFs in 96-well plates. Luciferase activity was measured 72 h following second cycle infection. For HSV1-KOS/Dlux/oriS, a luciferase assay was performed at 24 hpi. […] After incubation at 37°C for 10 days (for HCMV), 3 days for MCMV or 2 days (for HSV), the overlay was removed and plaques were counted after crystal violet staining.

[7] = test system: pp28-luciferase HCMV Towne; assay: Drug combination with GCV, Bliss model; type: cell-based, Human Cytomegalovirus; conditions: emetine combined with GCV, luciferase assay
Procedure: The combined inhibitory effect of compounds on HCMV replication was determined in infected HFFs as previously reported. The Bliss model, in which drug combination represents the product of two probabilistically independent events, was used for analysis.

[8] = test system: HSV1- KOS/Dlux/oriS; assay: HSV-1 luciferase assay in HFFs; type: cell-based, herpesvirus 1 (HSV-1); conditions: Human alphaherpesvirus 1, read-out: Mean EC50 ± SD
Procedure: as §1, §2

CC[C@H]1CN2CCc3cc(OC)c(OC)cc3[C@@H]2C[C@@H]1C[C@H]1NCCc2cc(OC)c(OC)cc21 [emetine, emetine dihydrochloride hydrate] was tested, and the “HCMV inhibition in high-density sh-RPS14 cells” value [1] was “unable to inhibit HCMV”, the “interaction between MDM2 and p53” value [2] was “disrupted” and the EC50 [3] was 38 nM. For the same compound, the EC50 [4] was 33 nM, the “expression of HCMV proteins IE1/2, UL44 and pp65” value [5] was “significantly reduced” and the “increase in pp28-luciferase activity, second cycle infection, compared to infected control” value ([6]; 0.5 million cells/plate) was 1.5 fold. The “pp28-luciferase activity, second cycle infection, compared to infected control” value ([6]; 1 and 2 million cells/plate) was “near complete inhibition”, the “HCMV inhibition in combination with GCV” value [7] was “synergistic” and the EC50 [8] was 56 nM.
